The values that follow are results of earlier work, collected in patent US6312728A, “Sustained release pharmaceutical preparation” (Cascade Development, Inc., priority 1999, dated 2001).

Read-outs that look alike come from different tables or passages of the source.

The conditions of data set [1]: intravenous administration.
The conditions of data set [2]: patients.
For data set [3] the following is noted: in vivo.

As to `O=C1NC(=O)C(c2ccccc2)(c2ccccc2)N1` [phenytoin sodium], the solubility in water entry is reported as “much more soluble”.
With `O=C1NC(=O)C(c2ccccc2)(c2ccccc2)N1` [phenytoin, 5,5-diphenyl-2,4-imidazolidinedione], the solubility in water result is listed as “poor solubility in water”. Besides, in data set [1], the serious adverse effects entry was “serious adverse effects, including cardiac arrhythmias and hypotensioni”. In addition, the “bioavailability following oral administration” value in data set [2] is reported as “great variations in bioavailability”. Moreover, in data set [3], the half-life (usually how long it takes for the measured level to halve) was > 6 h. Further, the solubility in water entry (listed as free-phenytoin) was “practically insoluble in water”.
